From patent US20260028654A1, “BIOTECHNOLOGICAL PRODUCTION OF MACROCYCLIC LACTONES” (SYMRISE AG, priority 2022, published 2026) come the findings set out here.

In experiment [1] the test system is cyclopentadecanone monooxygenase (CPDMO). Briefly: Spectro-photometric activity assay (NADPH consumption at 340 nm), cell-free lysate containing CPDMO. The format is biochemical, Pseudomonas species. Particulars: 0.25 mM Globanone, 0.3 mM NADPH, pH 9.0, 30° C. The source says:
(§1) The genes for the two Baeyer-Villiger Monooxygenases (BVMOs) cyclopentadecanone monooxygenase from a Pseudomonas species (CPDMO, Iwaki, H. et al., Appl. Environ. Microbiol. (2006), 72 (4): 2707-2720) and cyclododecanone monooxygenase from a Rhodococcus species (CDMO, Kostichka, K. et al., J. Bacteriol. (2001), 183 (21): 6478-6486) were cloned using standard molecular biology tools. For recombinant enzyme production in Escherichia coli an L-arabinose inducible vector derived from a pBAD plasmid carrying a kanamycin/neomycin resistance gene was used in an E. coli K-12 strain, in which the Larabinose catabolism is disrupted. Glycerol stocks were used to inoculate 5 ml overnight cultures (LB, 100 μg/ml neomycin). […]
(§2) Protein concentrations of the lysates were determined to calculate specific activities (Protein determination by Bradford). The concentrations of total protein in the cell-free extracts (CFEs) were determined using a modified protein-dye binding method as described by Bradford in Anal. Biochem. 72: 248-254 (1976).
(§3) To determine if the two BVMOs were active on Globanone® a spectro-photometric activity assay was applied. The assay makes use of the strong absorbance decrease at 340 nm upon consumption of the NADPH cofactor. […] The decrease of absorbance was followed for 3 minutes before substrate addition to detect potential, unspecific NADPH oxidation. […]

Experiment [2] deals with cyclododecanone monooxygenase (CDMO). Briefly: Spectro-photometric activity assay (NADPH consumption at 340 nm), cell-free lysate containing CDMO. Type of experiment: biochemical, Rhodococcus species. To be noted: 0.25 mM Globanone, 0.3 mM NADPH, pH 9.0, 30° C.
Text: as §1, §2, §3

Structures are written as SMILES.

For the molecule `O=C1CCCCCCC=CCCCCCCC1` [Globanone®], the volumetric activity in experiment [1] (E. coli cell-free lysate containing CPDMO (9.9 mg/ml protein)) was determined as 0.04 U/ml; in experiment [2] (E. coli cell-free lysate containing CDMO (18.6 mg/ml protein)) it was 3.71 U/ml. The specific activity in experiment [1] (per mg total cell-free lysate protein, CPDMO lysate) worked out at 0.004 U/mg; in experiment [2] (per mg total cell-free lysate protein, CDMO lysate) it was 0.20 U/mg.
